Experiments:
hBK = target: T1, hBK (Homo sapiens, UniProt Q12791); experiment: Manual whole cell patch clamp, HEK293 transiently transfected with hBK; assay type: cell-based; conditions: BBP 1 μM, manual patch clamp, 100 nM free intracellular calcium, n = 8
T1 construct: expressed in transfected cells; host or cells: HEK293 (transient, co-transfected with eGFP)
Description: (§1) HEK293 cells were transiently co-transfected with the plasmid of interest (hBK, hSK1, hSK2, hSK3 WT, rSK3 H491N, or hIK) and eGFP using standard Lipofectamine™ 2000 (Thermo Fisher Scientific, Waltham, Massachussets, USA) transfection protocols. After transfection, cells were incubated overnight before the experiments.
Manual patch clamp experiments were performed at room temperature in the whole cell configuration with a HEKA EPC9 amplifier and the Patchmaster software (HEKA Elektronik, Ludwigshafen, Germany). All currents were elicited every 2 s using an incremental 200 ms voltage-ramp protocol starting at −80 mV and finishing at +80 mV from a holding potential of 0 mV. […]
(§2) To assess the effect of BBP on other calcium-activated potassium channels (hBK, hSK3 WT, rSK3 H491N, and hIK), each individual current was first normalized to its cell size using membrane's capacitance (pA/pF) before statistical analysis. […] Statistical significance between saline and the effect of both BBP and the corresponding reference compound was determined for each channel using one-way ANOVA analysis. […]
After testing BBP on the three SK channel subtypes, we decided to explore whether other calcium-activated potassium channels were affected by the compound. […] Finally, a positive control was used to inhibit the remaining current and quantify the total effect of BBP. […]

all SK channel subtypes = experiment: Manual patch clamp, summary over all SK channel subtypes; assay type: cell-based, human; conditions: BBP 1 μM
Description: as §1
Manual patch clamp experiments were performed at room temperature in the whole cell configuration with a HEKA EPC9 amplifier and the Patchmaster software (HEKA Elektronik, Ludwigshafen, Germany). All currents were elicited every 2 s using an incremental 200 ms voltage-ramp protocol starting at −80 mV and finishing at +80 mV from a holding potential of 0 mV. […] Currents were measured using the same solutions as the ones used for automated patch clamp, with symmetrical potassium concentrations and a free intracellular calcium concentration of 400 nM. […]
as §2

T1 sequence (Q12791 whole entry): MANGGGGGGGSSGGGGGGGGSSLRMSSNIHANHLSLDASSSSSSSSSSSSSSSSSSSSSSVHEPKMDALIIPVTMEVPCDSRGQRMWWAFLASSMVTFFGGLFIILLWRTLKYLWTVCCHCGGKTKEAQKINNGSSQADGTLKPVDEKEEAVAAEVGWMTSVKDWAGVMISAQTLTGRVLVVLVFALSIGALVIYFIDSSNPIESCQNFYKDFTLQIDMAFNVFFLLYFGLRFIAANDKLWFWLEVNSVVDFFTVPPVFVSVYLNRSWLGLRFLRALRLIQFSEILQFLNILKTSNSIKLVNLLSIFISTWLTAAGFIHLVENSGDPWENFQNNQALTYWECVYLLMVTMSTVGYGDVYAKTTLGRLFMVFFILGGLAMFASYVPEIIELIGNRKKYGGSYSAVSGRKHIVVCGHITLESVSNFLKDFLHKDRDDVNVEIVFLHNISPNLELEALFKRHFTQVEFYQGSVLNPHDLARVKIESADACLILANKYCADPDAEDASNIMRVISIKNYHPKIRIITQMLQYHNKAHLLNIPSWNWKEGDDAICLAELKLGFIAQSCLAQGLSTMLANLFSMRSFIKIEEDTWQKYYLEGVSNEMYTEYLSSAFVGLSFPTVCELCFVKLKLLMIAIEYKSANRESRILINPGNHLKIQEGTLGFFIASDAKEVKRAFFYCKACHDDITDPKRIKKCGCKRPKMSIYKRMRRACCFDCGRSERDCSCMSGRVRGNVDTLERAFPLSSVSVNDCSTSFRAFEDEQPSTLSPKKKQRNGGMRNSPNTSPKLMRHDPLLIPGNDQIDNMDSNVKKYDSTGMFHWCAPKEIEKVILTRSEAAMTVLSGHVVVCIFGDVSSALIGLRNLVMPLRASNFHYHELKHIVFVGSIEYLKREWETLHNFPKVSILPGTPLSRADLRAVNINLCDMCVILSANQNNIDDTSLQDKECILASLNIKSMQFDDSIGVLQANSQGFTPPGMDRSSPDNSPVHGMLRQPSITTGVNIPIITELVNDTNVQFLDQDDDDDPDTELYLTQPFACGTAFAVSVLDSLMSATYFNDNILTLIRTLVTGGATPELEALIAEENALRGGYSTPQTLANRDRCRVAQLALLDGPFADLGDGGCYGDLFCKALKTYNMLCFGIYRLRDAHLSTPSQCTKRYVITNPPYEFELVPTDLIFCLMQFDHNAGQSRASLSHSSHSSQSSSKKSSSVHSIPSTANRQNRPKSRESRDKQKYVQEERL

SMILES: c1cc(-c2nc3ccccc3[nH]2)nc(-c2nc3ccccc3[nH]2)c1 [BBP, 2,6-Bis(2-benzimidazolyl)pyridine]
- Reduction of hBK current (hBK): 19 ± 6%
- Effect on all SK currents (in words) (all SK channel subtypes): totally inhibited
- Voltage dependence of inhibition (−80 vs +80 mV) (all SK channel subtypes): no significant differences

— publication PMC6287599, “2,6-Bis(2-Benzimidazolyl)Pyridine (BBP) Is a Potent and Selective Inhibitor of Small Conductance Calcium-Activated Potassium (SK) Channels” (Frontiers in Pharmacology, 2018)
